Assay results published in EP0215357B1, “Pharmaceutical preparation for the treatment of hypertension” (HOECHST AKTIENGESELLSCHAFT, priority 1985, dated 1987).

Tested on: spontan hypertensive Ratten (Wistar-Kyoto)
Assay: Urine excretion over 5 hours in spontaneously hypertensive rats (metabolic cages)
Type: in vivo, Ratte
Details: mean ± spread
Protocol: 10 spontan hypertensive Ratten (Wistar-Kyoto) wurden instrumentiert und während der Versuche in Stoffwechselkäfigen gehalten. Ramipril (=A) (1 mg/kg) und Piretanid (=B) (1,2 und 16 mg/kg) werden in Tylose oral mit Magensonde verabreicht. Die Kontrollgruppe erhielt nur Tylose. Die ausgeschiedene Urinmenge nach 5 Stunden, die Natriumausscheidung nach 5 Stunden sowie der arterielle Mitteldruck wurden bestimmt. Tabelle 1

Structure (SMILES)	Urinmenge (1 mg/kg oral in Tylose)	Urinmenge (2 mg/kg oral in Tylose)	Urinmenge (16 mg/kg oral in Tylose)
CCOC(=O)[C@H](CCc1ccccc1)N[C@@H](C)C(=O)N1[C@H](C(=O)O)C[C@@H]2CCC[C@@H]21 [A, Ramipril]	760±185 µ1/100g.5h		
NS(=O)(=O)c1cc(C(=O)O)cc(N2CCCC2)c1Oc1ccccc1 [B, Piretanid]	900±180 µ1/100g.5h	1470±140 µ1/100g.5h	3520±405 µ1/100g.5h
